According to US9289443B2, “Pharmaceutical composition and method for preventing or treating hepatitis C” (INDUSTRIAL TECHNOLOGY RESEARCH INSTITUTE, priority 2010, dated 2016):
Read-outs that look alike come from different tables or passages of the source.

Columns and labels:
[1] = Cell cytotoxic test (MTT) on Huh-luc/neo-ET cells; type: cell-based; details: human, concentration for 50% cell kill, two-day culture
Protocol: (§1) Cell Cytotoxic Test on Huh-luc/noe-ET Cells
(§2) Huh-luc/neo-ET cells with a concentration of 2.5×10^4 cells/100 μl/well were seeded into a 96 well culture plate (Corning Incorporation COSTAR, 3599) and placed into a cell incubator for culturing.
(§3) The next day, the oleanolic acid derivatives as listed in the following Tables 1 and 2 were diluted with a DMEM culture medium to the concentrations of 28.73 μg/ml, 9.57 μg/ml, 3.19 μg/ml, 1.06 μg/ml, 0.35 μg/ml, 0.11 μg/ml, 0.039 μg/ml and 0.013 μg/ml, respectively, or diluted to the concentrations of 114.92 μg/ml, 38.33 μg/ml, 12.77 μg/ml, 4.25 μg/ml, 1.42 μg/ml, 0.46 μg/ml, 0.16 μg/ml and 0.057 μg/ml, respectively. The initial medium in the 96 well culture plate was sucked out by a vacuum pump (DOAT-704AA) without removing the cells. Then, the culture medium containing the oleanolic acid derivatives were added into the 96 well culture plate containing 100 μl/well of the cells as the experiment groups, while the untreated culture mediums were added to the cells as a control.
(§4) After a two-day culture, the medium was removed and each well containing cells was washed by 100 μl of 1×PBS (1 mM KH2PO4, 10 mM Na2HPO4, 137 mM NaCl, 2.7 mM KCl) twice. Precipitates were recorded and PBS was removed. 50 μl of the medium containing 0.5 mg/ml of MTT (Sigma, M2128) was added into each well of the 96 well culture plate. The 96 well culture plate was placed in a CO2 culture incubator for 1 hour. Subsequently, 150 μl of DMSO (Riedel-de Haül, 60153) was added to each well of the 96 well culture plate and vortexed (KS shaker Type 670) to thoroughly mix the resulting purple precipitates. The 96 well culture plate was then placed in a continuous wave length microwell plate analysis system (Molecular Devices, SPECTRAMAX 190) to measure the absorbance of cells at a wavelength of 560 nm.
(§5) The average absorbance of the control was set as 100% of the cell survival rates (%) to calculate the cell survival rates (%) of the experiment groups with different concentrations of the oleanolic acid derivatives.
(§6) The cell survival rate was calculated by the following formula: Absorbance of the experiment group/Absorbance of the control×100%
(§7) The data of the cell survival rates for all experiment groups were plotted on an x-y graph to see the distribution. A trend line was obtained. […]

Huh-luc/neo-ET cells = experiment: Cell cytotoxic test (MTT) on Huh-luc/neo-ET cells; type: cell-based; details: concentration for 15% cell kill, two-day culture
Protocol: as §1, §2, §3, §4, §5, §6, §7

[2] = test system: HCV replicon system (Huh-luc/neo-ET cell carrying I389luc-ubi-NS3-3'/ET); experiment: Inhibition of the HCV replication by determining the firefly luciferase activity (HCV replicon system); type: cell-based, Hepatitis C virus; details: for EW (CC50/IC50): ratio of CC50/IC50; for inhibition at 1 µM: compound concentration 1 μM
Excerpt: HCV replicon system was used to test the effects of compounds on the treatment and prevention of hepatitis C. The HCV replicon system has been acknowledged as a screening tool for new drugs (Lohmann, V. et al., 1999, Replication of subgenomic hepatitis C virus RNAs in hepatoma cell line, Science. Vol. 285, 110-113; Bartenschlager, R. 2002, Hepatitis C virus replicons: potential role for drug development, Nature Reviews/Drug Discovery. Vol. 1, 911-916; Vorlijk, J. M. et al., 2003, A replicon-based bioassay for the measurement of interferons in patients with chronic hepatitis C, Journal of Virological Methods. 110:201-209). The HCV replicon system includes a Huh-luc/neo-ET cell carrying I389luc-ubi-NS3-3′/ET gene construct which monitors the replicative capability of the HCV. In the HCV replicon system, a firefly luciferase-ubiquitin-neomycin fusion protein is expressed by the translation of the internal ribosomal entry site (IRES) of the HCV, and the hepatitis C viral nonstructural proteins (NS3-5B), which includes protease, helicase and polymerase, are expressed by the translation of the IRES of the encephalomyocarditis virus (EMCV).
The IRES of the hepatitis C virus or the hepatitis C viral nonstructural proteins consist of a replication complex. When the replication complex is affected by the candidate compound, the activity of the HCV replicon system is inhibited and the activity of the luciferase is reduced. Accordingly, the inhibition of the HCV can be estimated by determining the activity of the intensity of the luciferase expressed by the Huh-luc/noe-ET cell.
Inhibition of the HCV Replication by Determining the Firefly Luciferase Activity
as §2
The oleanolic acid derivatives as listed in Table 2 were co-cultured with Huh-luc/neo-ET cells for 2 days. The mediums were washed twice by 100 μl of 1×PBS (1 mM KH2PO4, 10 mM Na2HPO4, 137 mM NaCl, 2.7 mM KCl) and PBS was removed. 35 μl of 1× passive lysis buffer (Promega, E1941) was added to the cells and vortexed for 10 minutes to thoroughly lysis the cells.
30 μl/well of the cell suspension was then added to a 96 well white plate (NUNC, 236108) for the measurement of the luciferase activity. Subsequently, 40 μl/well of luminescence analysis buffer and 20 μl/well of luminescence substrate (1 mM D-Luciferin) were added into the 96 well white plates. The luciferase activity (Rlu/s) was measured by a microplate luminescence meter (Berthold, MPL4) immediately.
The luciferase activity of the control was set as a standard to calculate the inhibition rates (%) of HCV of the experiment groups. The inhibition rates was calculated by the following formula: […]
After the test compounds were serial diluted and the inhibition rates of the HCV replication were determined at different concentrations, the concentration at 50% inhibition of the HCV replication (IC50) was calculated by grafit5 software (Erithacus Software).
For each experiment, 0.5 ng/ml and 0.1 ng/ml of the PEG IFN alpha-2a were used as positive controls for the IC50 test. Meanwhile, 1 μg/ml of cyclosporine A (CsA) was also used as a positive control for the IC50 test.

[3] = Hepatitis C virus, Huh-luc/neo-ET
[4] = Hepatitis C virus, Huh-luc/neo-ET, 48 h, read-out: Inhibition rate (%)
[5] = Hepatitis C virus, Huh-luc/neo-ET, 48 h, compound concentration 10 μM, 2 days co-culture, luciferase activity, read-out: Inhibition rate (%)
[6] = Hepatitis C virus, concentration for 50% inhibition of the HCV replication, Huh-luc/neo-ET replicon cells, read-out: IC50
[7] = Hepatitis C virus, Huh-luc/neo-ET, 48 h, 2 days co-culture, luciferase activity, read-out: Inhibition rate (%)

Structure (SMILES)	CC50 at 2 days [1] [µM]	CC15 (Huh-luc/neo-ET cells) [µM]	IC50 [2, 3] [µM]	inhibition at 10 µM [2, 4] [%]	EW (CC50/IC50) [2]	inhibition at 10 µM [2, 5] [%]	IC50 [2, 6] [µM]	inhibition at 1 µM [2, 7] [%]	inhibition at 5 µM [2, 4] [%]	inhibition at 4 µM ([2]; Hepatitis C virus, Huh-luc/neo-ET, 48 h, compound concentration 4 μM, 2 days co-culture, luciferase activity, read-out: Inhibition rate (%)) [%]
C/C=C(/C)C(=O)OC1CC(C)(C)CC2C3=CCC4C5(C)CCC(OC6OC(C)C(OC7OC(C(=O)O)C(O)C(OC8OC(CO)C(O)C(O)C8OC8OC(CO)C(O)C(O)C8O)C7O)C(O)C6O)C(C)(C)C5CCC4(C)C3(C)C(OC(=O)/C=C/C=C/C=C/CCC)C(OC(C)=O)C12CO (stereo not drawn) [A15]	> 100	>100	3.94 ± 0.13	92 ± 1.6	25.38	–	–	–	–	–
C=CC(C)(O)CC/C=C(\C)C(=O)OCC1OC(OC(=O)C23CCC4(C)C(=CCC5C6(C)CCC(OC7OC(COC8OC(CO)C(O)C(O)C8O)C(OC8OCC(O)C(O)C8OC8OCC(O)C(O)C8O)C(O)C7NC(C)=O)C(C)(C)C6CCC54C)C2CC(C)(C)C(O)C3O)C(OC2OCC(OC3OCC(O)(CO)C3O)C(O)C2O)C(O)C1OC1OC(CO)C(O)C(O)C1O (stereo not drawn) [A16]	45.3	12.09	–	–	107.9	95.3 ± 0.3	0.42 ± 0.21	–	–	–
C=CC(C)(O)CC/C=C(\C)C(=O)OCC1OC(OC(=O)C23CCC4(C)C(=CCC5C6(C)CCC(OC7OC(COC8OC(CO)C(O)C(O)C8O)C(OC8OCC(O)C(O)C8OC8OCC(O)C(O)C8O)C(O)C7NC(C)=O)C(C)(C)C6CCC54C)C2CC(C)(C)C(O)C3O)C(OC2OCC(OC3OCC(O)(CO)C3O)C(O)C2O)C(O)C1OC1OC(CO)C(OC(C)=O)C(O)C1O (stereo not drawn) [A17]	18.1	1.49	–	–	317.89	–	0.057 ± 0.003	94.9 ± 1.2	–	–
C/C=C(\C)C(=O)OC1C(OC(C)=O)C2(C(=O)O)C(CC1(C)C)C1=CCC3C4(C)CCC(OC5OC(CO)C(O)C(OC6OC(CO)C(O)C(OC7OC(C)C(O)C(O)C7O)C6O)C5O)C(C)(C)C4CCC3(C)C1(C)C(OC(C)=O)C2OC(C)=O (stereo not drawn) [A18]	94.8	7.18	–	–	–	45 ± 2.9	–	–	–	–
C=CC(C)(O)CC/C=C(\C)C(=O)OC1C(O)C(CO)OC(OC(=O)C23CCC(C)(C)CC2C2=CCC4C5(C)CCC(OC6OC(COC7OCC(OC(C)=O)C(O)C7OC7OC(COC(C)=O)C(O)C(O)C7OC(C)=O)C(O)C(O)C6OC6OCC(O)C(O)C6O)C(C)(C)C5CCC4(C)C2(C)C(O)C3O)C1OC1OCC(OC2OCC(O)C(OC3OCC(O)C(O)C3O)C2O)C(O)C1O (stereo not drawn) [A19]	17.9	1.17	–	–	435.61	–	0.041 ± 0.005	94.8 ± 1.6	–	–
C=CC(C)(O)CC/C=C(\C)C(=O)OC1C(O)C(CO)OC(OC(=O)C23CCC(C)(C)CC2C2=CCC4C5(C)CCC(OC6OC(COC7OCC(OC(C)=O)C(O)C7OC7OC(COC(C)=O)C(O)C(O)C7O)C(O)C(O)C6OC6OCC(O)C(O)C6O)C(C)(C)C5CCC4(C)C2(C)C(O)C3O)C1OC1OCC(OC2OCC(O)C(OC3OCC(O)C(O)C3O)C2O)C(O)C1O (stereo not drawn) [A20]	50.2	18.85	–	–	576.67	96 ± 1.5	0.087 ± 0.01	–	–	–
C=CC(C)(O)CC/C=C(\C)C(=O)OC1C(OCC2OC(OC(=O)C34CCC(C)(C)CC3C3=CCC5C6(C)CCC(OC7OC(COC8OCC(O)C(O)C8OC8OCC(O)C(O)C8O)C(O)C(O)C7O)C(C)(C)C6CCC5(C)C3(C)CC4O)C(OC3OC(C)C(OC4OCC(O)C(OC5OCC(O)C(O)C5O)C4O)C(O)C3O)C(OC(=O)/C(C)=C/CCC(C)(O)C=C)C2O)OC(C)C(O)C1O (stereo not drawn) [A21]	56.7	11.64	–	–	90.03	97.3 ± 1.1	0.63 ± 0.07	–	–	–
CC1(C)CC2C3=CCC4[C@@]5(C)CC[C@H](OC6OCC(O)C(OC7OC(CO)C(O)C(O)C7O)C6O)C(C)(C)C5CC[C@@]4(C)[C@]3(C)C[C@H](O)[C@@]2(CO)[C@H](OC(=O)c2ccccc2)C1 (stereo partly drawn) [A22]	40	8.62	–	–	–	-0.8 ± 5.7	–	–	–	–
C=CC(C)(O)CCCC(C)C(=O)OC1C(C)OC(OC(C)(C=C)CC/C=C(\CO)C(=O)OC2CC3(C(=O)OC4OCC(OC5OC(CO)C(O)C(OC6OC(CO)C(OC7OC(C)C(O)C(O)C7O)C(O)C6O)C5O)C(O)C4O)CCC4(C)C(=CCC5C6(C)CCC(OC7OC(CO)C(OC8OC(CO)C(O)C(OC9OCC(O)C(O)C9O)C8O)C(O)C7O)C(C)(C)C6CCC54C)C3CC2(C)C)C(O)C1O (stereo not drawn) [A23]	38.1	7.96	0.23 ± 0.02	–	156.73	–	–	–	93.5 ± 0.4	–
CC(=O)NC1C(O[C@H]2CC[C@@]3(C)C(CC[C@]4(C)C3CC=C3C5CC(C)(C)CC[C@]5(C(=O)OC5OC(COC(=O)/C=C/c6ccccc6)C(OC6OC(CO)C(O)C(O)C6OC(C)=O)C(O)C5OC5OCC(OC6OCC(O)(CO)C6O)C(O)C5O)CC[C@]34C)C2(C)C)OC(COC2OCC(O)C(O)C2OC2OCC(O)C(O)C2O)C(OC2OC(CO)C(O)C(O)C2O)C1O (stereo partly drawn) [A24]	14.1	4.53	–	–	–	–	–	–	–	54.8 ± 5.4
C=CC(C)(O)CC/C=C(\C)C(=O)O[C@H]1[C@H](O)[C@@H](CO)OC(OC(=O)[C@]23CCC(C)(C)CC2C2=CCC4[C@@]5(C)CC[C@H](OC6O[C@H](COC7OC[C@H](O)[C@H](O)[C@H]7OC7OC[C@@H](O)[C@H](O)[C@H]7O)[C@@H](O)[C@H](O)[C@H]6O)C(C)(C)C5CC[C@@]4(C)[C@]2(C)CC3)[C@@H]1OC1OC(C)C(OC2OC[C@@H](O)[C@H](OC3OC[C@@H](O)[C@H](O)[C@H]3O)[C@H]2O)C(O)C1O (stereo partly drawn) [A25]	64.1	10.29	–	–	178.08	96.5 ± 0.8	0.36 ± 0.016	–	–	–
C=CC(C)(O)CC/C=C(\C)C(=O)OC1C(O)C(CO)OC(OC(=O)C23CCC(C)(C)CC2C2=CCC4C5(C)CCC(OC6OC(COC7OCC(O)C(O)C7OC7OCC(O)C(O)C7O)C(O)C(O)C6O)C(C)(C)C5CCC4(C)C2(C)CC3O)C1OC1OC(CO)C(OC2OCC(O)C(OC3OCC(O)C(O)C3O)C2O)C(O)C1O (stereo not drawn) [A26]	38.4	7.94	–	–	85.24	95.6 ± 1.2	0.45 ± 0.04	–	–	–
